Data on 15 molecules can be found in patent US20150299143A1, “SUBSTITUTED TRIAZOLE AND IMIDAZOLE COMPOUNDS” (HOFFMANN-LA ROCHE INC., priority 2012, published 2015).

SMILES strings stand for the structures. Like-named read-outs stand apart in the source and are kept apart here.

The test system of one assay is β 2c/2i (trypsin-like). Description: Cell-Based Proteasome subunit activity/selectivity assay, β2c/2i, substrate (KQL)2Rh110. The settings on record: Ramos cells; substrate (KQL)2Rh110 (β2c/2i); highest concentration tested 20 μM. The procedure, abridged:
(§1)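 Subunit activity in cultured cells read with subunit-selective fluorogenic Rh110 substrates: (LLE)2 for β1c, (PAL)2 for β1i, (KQL)2 for β2c/2i, (WLA)2 for β5c. Cells exposed to 4-fold serially diluted compound (top 20 μM) 30 min at 37 °C, then substrate 120 min at room temperature; fluorescence 500/519 nm.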

For assay [1], the target named is T1, β 5i (chymotrypsin-like activity) (Homo sapiens, UniProt P20618+P28062).
T1 construct: protease activity associated with the proteasome complex in cultured cells; endogenous in cells; host or cells: Ramos cells
In words: Cell-Based Proteasome subunit activity/selectivity assay, β5i, substrate (ANW)2Rh110. As to conditions: Ramos cells; substrate (ANW)2Rh110 (β5i); highest concentration tested 20 μM; read-out: Ic50:ramos:ac-(anw)2-r110. Put shortly: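 Cell-based fluorogenic assay measuring chymotrypsin-like β5i proteasome activity using the substrate (ANW)2Rh110. Cultured cells received 0.5 μl of 100× 4-fold serial diluted compounds or DMSO per well, were incubated 30 minutes at 37° C, then equilibrated 15 minutes at room temperature. After shaking one minute @ 700 rpm and 120 min room-temperature incubation, fluorescence was read at 500 nm excitation/519 nm emission on an Envision reader.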

Another assay addresses T2, β 1c (caspase-like) (Homo sapiens, UniProt P28072+Q99436).
T2 construct: protease activity associated with the proteasome complex in cultured cells; endogenous in cells; host or cells: Ramos cells
In words: Cell-Based Proteasome subunit activity/selectivity assay, β1c, substrate (LLE)2Rh110. The procedure, abridged:
as §1

Assay [2] has as its target T3, β5c (chymotrypsin-like activity) (Homo sapiens, UniProt P20618+P28074).
T3 construct: protease activity associated with the proteasome complex in cultured cells; endogenous in cells; host or cells: Ramos cells
Description: Cell-Based Proteasome subunit activity/selectivity assay, β5c, substrate (WLA)2Rh110. The procedure, abridged: as §1

The target in the next assay is T4, β 1i (caspase-like) (Homo sapiens, UniProt P28065+P40306).
T4 construct: protease activity associated with the proteasome complex in cultured cells; endogenous in cells; host or cells: Ramos cells
Description: Cell-Based Proteasome subunit activity/selectivity assay, β1i, substrate (PAL)2Rh110. The procedure, abridged: as §1

The mark [3] stands for this setting: Ramos cells, substrate (LLE)2Rh110 (β1c), highest concentration tested 20 μM, read-out: Ic50:ramos:rh110-(lle)2.
Where [4] appears, read: Ramos cells, substrate (WLA)2Rh110 (β5c), highest concentration tested 20 μM, read-out: Ic50:ramos:rh110-(wla)2.
Setting [5] is: Ramos cells, substrate (PAL)2Rh110 (β1i), highest concentration tested 20 μM, read-out: Ic50:ramos:rh110-(pal)2.

Turning to `CCc1ccc(C(C#N)NC(=O)c2cn(CCNC(=O)c3ccc(C(F)(F)F)cc3OC)cn2)cc1` (stereo not drawn) [Example 92, 1-[2-(2-Methoxy-4-trifluoromethyl-benzoylamino)-ethyl]-1H-imidazole-4-carboxylic acid [cyano-(4-ethyl-phenyl)-methyl]-amide], the IC50 with β 2c/2i (trypsin-like) is no less than 20 µM; in assay [1], 0.996 µM; on β 1c (caspase-like) (setting [3]) it was 18.3 µM; in assay [2] (setting [4]) it was no less than 20 µM; on β 1i (caspase-like) (setting [5]) it was no less than 20 µM.

With `CCc1ccc(C(C#N)NC(=O)c2cn(CCNC(=O)c3ccc(Cl)cc3F)nn2)cc1` (stereo not drawn) [Example 31, 1-[2-(4-Chloro-2-fluoro-benzoylamino)-ethyl]-1H-[1,2,3]triazole-4-carboxylic acid [cyano-(4-ethyl-phenyl)-methyl]-amide], the IC50 in the assay on β 2c/2i (trypsin-like) was no less than 20 µM; in assay [1] it was 0.134 µM; on β 1c (caspase-like) (setting [3]), no less than 20 µM; in assay [2] (setting [4]), 16.1 µM; on β 1i (caspase-like) (setting [5]), no less than 20 µM.

Regarding `CCOC(=O)[C@H](CCc1ccccc1)NC(=O)c1cn(CCNC(=O)c2ccc(C(F)(F)F)cc2F)nn1` [Example 81, (S)-2-({1-[2-(2-Fluoro-4-trifluoromethyl-benzoylamino)-ethyl]-1H-[1,2,3]triazole-4-carbonyl}-amino)-4-phenyl-butyric acid ethyl ester], the IC50 is no less than 20 µM with β 2c/2i (trypsin-like); 0.205 µM in assay [1]; no less than 20 µM at β 1c (caspase-like) (setting [3]); no less than 20 µM in assay [2] (setting [4]); no less than 20 µM on β 1i (caspase-like) (setting [5]).

As for `COc1ccc(C(=O)NCCn2cc(C(=O)NC(C#N)c3cccc(SC)c3)nn2)c(OC)c1OC` (stereo not drawn) [Example 55, 1-[2-(2,3,4-Trimethoxy-benzoylamino)-ethyl]-1H-[1,2,3]triazole-4-carboxylic acid [cyano-(3-methylsulfanyl-phenyl)-methyl]-amide], the half-inhibitory concentration (IC50) was no less than 20 µM in the assay with β 2c/2i (trypsin-like); 4.02 µM in assay [1]; no less than 20 µM at β 1c (caspase-like) (setting [3]); no less than 20 µM in assay [2] (setting [4]); no less than 20 µM at β 1i (caspase-like) (setting [5]).

For the molecule `CCc1ccc(C(C#N)NC(=O)c2cn(CCNC(=O)c3ccc(C(F)(F)F)cc3F)nn2)cc1` (stereo not drawn) [Example 38, 1-[2-(2-Fluoro-4-trifluoromethyl-benzoylamino)-ethyl]-1H-[1,2,3]triazole-4-carboxylic acid [cyano-(4-ethyl-phenyl)-methyl]-amide], the IC50 was no less than 20 µM in the assay with β 2c/2i (trypsin-like); 0.017 µM in assay [1]; no less than 20 µM on β 1c (caspase-like) (setting [3]); no less than 20 µM in assay [2] (setting [4]); no less than 20 µM on β 1i (caspase-like) (setting [5]).

With `CCc1ccc(C(C#N)NC(=O)c2cn(CCNC(=O)c3cc(C(F)(F)F)ccc3F)nn2)cc1` (stereo not drawn) [Example 37, 1-[2-(2-Fluoro-5-trifluoromethyl-benzoylamino)-ethyl]-1H-[1,2,3]triazole-4-carboxylic acid [cyano-(4-ethyl-phenyl)-methyl]-amide], the IC50 is no less than 20 µM with β 2c/2i (trypsin-like); 0.071 µM in assay [1]; no less than 20 µM at β 1c (caspase-like) (setting [3]); no less than 20 µM in assay [2] (setting [4]); no less than 20 µM on β 1i (caspase-like) (setting [5]).

`CCc1ccc(C(C#N)NC(=O)c2cn(CCNC(=O)c3cccnc3OC)nn2)cc1` (stereo not drawn) [Example 29, N-[2-(4-{[Cyano-(4-ethyl-phenyl)-methyl]-carbamoyl}-[1,2,3]triazol-1-yl)-ethyl]-2-methoxy-nicotinamide]: the half-maximal inhibitory concentration (IC50) in the assay with β 2c/2i (trypsin-like) is no less than 20 µM; in assay [1], 3.05 µM; at β 1c (caspase-like) (setting [3]), no less than 20 µM; in assay [2] (setting [4]), no less than 20 µM; on β 1i (caspase-like) (setting [5]) it was no less than 20 µM.

As for `Cc1ccc(C(=O)NCCn2cc(C(=O)NC(C#N)c3ccc(C(F)(F)F)cc3)nn2)c(F)c1` (stereo not drawn) [Example 75, 1-[2-(2-Fluoro-4-methyl-benzoylamino)-ethyl]-1H-[1,2,3]triazole-4-carboxylic acid [cyano-(4-trifluoromethyl-phenyl)-methyl]-amide], the half-inhibitory concentration (IC50) in the assay with β 2c/2i (trypsin-like) was no less than 20 µM; in assay [1] it was 1.39 µM; at β 1c (caspase-like) (setting [3]) it was no less than 20 µM; in assay [2] (setting [4]) it was 19.9 µM; at β 1i (caspase-like) (setting [5]) it was no less than 20 µM.

As for `CCc1ccc(C(C#N)NC(=O)c2cn(CCNC(=O)c3ccccc3COC)nn2)cc1` (stereo not drawn) [Example 33, 1-[2-(2-Methoxymethyl-benzoylamino)-ethyl]-1H-[1,2,3]triazole-4-carboxylic acid [cyano-(4-ethyl-phenyl)-methyl]-amide], the IC50 in the assay on β 2c/2i (trypsin-like) is no less than 20 µM; in assay [1] it was 1.8 µM; on β 1c (caspase-like) (setting [3]) it was no less than 20 µM; in assay [2] (setting [4]), no less than 20 µM; on β 1i (caspase-like) (setting [5]), no less than 20 µM.

Regarding `COc1ccc(C(=O)NCCn2cc(C(=O)N[C@@H](CCc3ccccc3)C(=O)O)nn2)c(OC)c1OC` [Example 83, (S)-4-Phenyl-2-({1-[2-(2,3,4-trimethoxy-benzoylamino)-ethyl]-1H-[1,2,3]triazole-4-carbonyl}-amino)-butyric acid], the concentration for half-maximal inhibition (IC50) with β 2c/2i (trypsin-like) is no less than 20 µM; in assay [1], 0.921 µM; against β 1c (caspase-like), no less than 20 µM; in assay [2], 8.36 µM; on β 1i (caspase-like), no less than 20 µM.

Consider `CCc1ccc(C(C#N)NC(=O)c2cn(CCNC(=O)c3cc(Cl)ccc3Cl)nn2)cc1` (stereo not drawn) [Example 14, 1-[2-(2,5-Dichloro-benzoylamino)-ethyl]-1H-[1,2,3]triazole-4-carboxylic acid [cyano-(4-ethyl-phenyl)-methyl]-amide], for which the half-maximal inhibitory concentration (IC50) was no less than 20 µM in the assay on β 2c/2i (trypsin-like); 0.19 µM in assay [1]; no less than 20 µM at β 1c (caspase-like) (setting [3]); no less than 20 µM in assay [2] (setting [4]); no less than 20 µM on β 1i (caspase-like) (setting [5]).

For the molecule `CCc1ccc(C(C#N)NC(=O)c2cn(CCNC(=O)c3ccccc3OC(F)(F)F)nn2)cc1` (stereo not drawn) [Example 24, 1-[2-(2-Trifluoromethoxy-benzoylamino)-ethyl]-1H-[1,2,3]triazole-4-carboxylic acid [cyano-(4-ethyl-phenyl)-methyl]-amide], the IC50 was no less than 20 µM with β 2c/2i (trypsin-like); 0.779 µM in assay [1]; no less than 20 µM on β 1c (caspase-like) (setting [3]); no less than 20 µM in assay [2] (setting [4]); no less than 20 µM on β 1i (caspase-like) (setting [5]).

As for `COc1ccc(C(=O)NCCn2cc(C(=O)NC(C#N)c3ccc(C(F)(F)F)cc3)nn2)c(OC)c1OC` (stereo not drawn) [Example 60, 1-[2-(2,3,4-Trimethoxy-benzoylamino)-ethyl]-1H-[1,2,3]triazole-4-carboxylic acid [cyano-(4-trifluoromethyl-phenyl)-methyl]-amide], the IC50 with β 2c/2i (trypsin-like) is no less than 20 µM; in assay [1] it was 0.619 µM; at β 1c (caspase-like) (setting [3]), no less than 20 µM; in assay [2] (setting [4]) it was no less than 20 µM; on β 1i (caspase-like) (setting [5]) it was no less than 20 µM.

As for `CCc1ccc(C(C#N)NC(=O)c2nc(CCNC(=O)c3ccc(OC)c(OC)c3OC)n[nH]2)cc1` (stereo not drawn) [Example 89, 5-[2-(2,3,4-Trimethoxy-benzoylamino)-ethyl]-2H-[1,2,4]triazole-3-carboxylic acid [cyano-(4-ethyl-phenyl)-methyl]-amide], the IC50 in the assay on β 2c/2i (trypsin-like) was no less than 20 µM; in assay [1], 0.054 µM; on β 1c (caspase-like) (setting [3]) it was no less than 20 µM; in assay [2] (setting [4]), no less than 20 µM; at β 1i (caspase-like) (setting [5]), no less than 20 µM.

Regarding `COc1cccc(C(C#N)NC(=O)c2cn(CCNC(=O)c3ccc(OC)c(OC)c3OC)nn2)c1` (stereo not drawn) [Example 52, 1-[2-(2,3,4-Trimethoxy-benzoylamino)-ethyl]-1H-[1,2,3]triazole-4-carboxylic acid [cyano-(3-methoxy-phenyl)-methyl]-amide], the IC50 in the assay with β 2c/2i (trypsin-like) is no less than 20 µM; in assay [1], 2.69 µM; at β 1c (caspase-like) (setting [3]), no less than 20 µM; in assay [2] (setting [4]), no less than 20 µM; at β 1i (caspase-like) (setting [5]) it was no less than 20 µM.

What is called IC50 is the midpoint of a concentration-inhibition curve.
